Values quoted from earlier work, collected in PubChem BioAssay AID1259409 (Chemical Carcinogenesis Research Information System (CCRIS), 2018).

Test system: rodent chemically induced tumor inhibition, incidence and multiplicity
Test: CCRIS tumor inhibitor studies

Compound: CC[C@H](CC[C@@H](C)[C@H]1CC[C@H]2[C@@H]3CC=C4C[C@@H](O)CC[C@]4(C)[C@H]3CC[C@]12C)C(C)C
- tumour outcome (control, treated, inhibition, significance) (Carcinogen: 7,12-DIMETHYLBENZ[A]ANTHRACENE, 57-97-6, Dose [Inhibitor]: 0, 5 UMOL 2/WK BEGINNING 1 WK POST CARCINOGEN TREATMENT AND CONTINUING FOR 18 WK (STUDY DURATION: 19 WK), Route [Inhibitor]: DERMAL, Species: MOUSE, Strain/Sex: ICR/FEMALE, Target Tissue: Type of Lesion: SKIN: PAPILLOMA, Dose [Carcinogen]: 50 UG ONCE, Promoter: 12-O-TETRADECANOYLPHORBOL-13-ACETATE, 16561-29-8): 100%, 80%, 20%, not calculated
- tumour outcome (control, treated, inhibition, significance) (Carcinogen: AZOXYMETHANE, 25843-45-2, Dose [Inhibitor]: 2 G/KG DIET DAILY FOR 26 WK STARTING SIMULTANEOUSLY WITH CARCINOGEN TREATMENT (STUDY DURATION: 26 WK), Route [Inhibitor]: ORAL, Species: RAT, Strain/Sex: SPRAGUE-DAWLEY/MALE, Target Tissue: Type of Lesion: LARGE INTESTINE: MALIGNANT TUMOR, Dose [Carcinogen]: 8 MG/KG BW INJECTED 1/WK FOR 8 WK, Promoter: NONE USED): 90%, 93%, -3%, not significant
- tumour outcome (control, treated, inhibition, significance) (Carcinogen: AZOXYMETHANE, 25843-45-2, Dose [Inhibitor]: 2 G/KG DIET DAILY FOR 26 WK STARTING SIMULTANEOUSLY WITH CARCINOGEN TREATMENT (STUDY DURATION: 26 WK), Route [Inhibitor]: ORAL, Species: RAT, Strain/Sex: SPRAGUE-DAWLEY/MALE, Target Tissue: Type of Lesion: SMALL INTESTINE: MALIGNANT TUMOR, Dose [Carcinogen]: 8 MG/KG BW INJECTED 1/WK FOR 8 WK, Promoter: NONE USED): 90%, 96%, -7%, not significant
- tumour outcome (control, treated, inhibition, significance) (Carcinogen: AZOXYMETHANE, 25843-45-2, Dose [Inhibitor]: 2 G/KG DIET DAILY STARTING SIMULTANEOUSLY WITH CARCINOGEN TREATMENT AND CONTINUING THROUGH END OF STUDY (STUDY DURATION:, Route [Inhibitor]: ORAL, Species: RAT, Strain/Sex: SPRAGUE-DAWLEY/MALE, Target Tissue: Type of Lesion: LARGE INTESTINE: MALIGNANT TUMOR, Dose [Carcinogen]: 8 MG/KG BW 1/WK FOR 8 WK, Promoter: NONE USED): 90%, 93%, -3%, not significant
- tumour outcome (control, treated, inhibition, significance) (Carcinogen: AZOXYMETHANE, 25843-45-2, Dose [Inhibitor]: 2 G/KG DIET DAILY STARTING SIMULTANEOUSLY WITH CARCINOGEN TREATMENT AND CONTINUING THROUGH END OF STUDY (STUDY DURATION:, Route [Inhibitor]: ORAL, Species: RAT, Strain/Sex: SPRAGUE-DAWLEY/MALE, Target Tissue: Type of Lesion: SMALL INTESTINE: MALIGNANT TUMOR, Dose [Carcinogen]: 8 MG/KG BW 1/WK FOR 8 WK, Promoter: NONE USED): 90%, 96%, -7%, not significant
- tumour outcome (control, treated, inhibition, significance) (Carcinogen: N-METHYL-N-NITROSOUREA, 684-93-5, Dose [Inhibitor]: 0.2% IN DIET DAILY FOR 28 WK STARTING SIMULTANEOUSLY WITH CARCINOGEN TREATMENT AND CONTINUING FOR DURATION OF STUDY (STU, Route [Inhibitor]: ORAL, Species: RAT, Strain/Sex: FISCHER CD/MALE, Target Tissue: Type of Lesion: COLON: ADENOMA, Dose [Carcinogen]: 2 MG IN 0.5 ML OF 0.9% NACL SOLUTION 1/3 D FOR 10 D, Promoter: NONE USED): 38/71 (54%), 16/48 (33%), 39%, p<0.05

Compound: CSCC[C@H](NC(C)=O)C(=O)O
- tumour outcome (control, treated, inhibition, significance) (Carcinogen: 7,12-DIMETHYLBENZ[A]ANTHRACENE, 57-97-6, Dose [Inhibitor]: 0.06 MMOL/G DIET DAILY FOR 17 WK STARTING 1 WK PRIOR TO CARCINOGEN TREATMENT AND CONTINUING THROUGH THE END OF THE STUDY, Route [Inhibitor]: ORAL, Species: RAT, Strain/Sex: SPRAGUE-DAWLEY/FEMALE, Target Tissue: Type of Lesion: MAMMARY GLAND: TUMOR, Dose [Carcinogen]: 12 MG IN 1 ML OLIVE OIL ONCE, Promoter: NONE USED): 59%, 69%, -17%, not calculated

Compound: c1ccc2c(c1)Nc1ccccc1S2
- tumour outcome (control, treated, inhibition, significance) (Carcinogen: BENZO[A]PYRENE, 50-32-8, Dose [Inhibitor]: 0, 3.8 UMOL/G DIET BEGINNING 1 WK PRIOR TO CARCINOGEN TREATMENT AND CONTINUING FOR 1 WK POST CARCINOGEN TREATMENT FOLLOW, Route [Inhibitor]: ORAL, Species: MOUSE, Strain/Sex: CD-1/FEMALE, Target Tissue: Type of Lesion: FORESTOMACH: PAPILLOMA, Dose [Carcinogen]: 1 MG IN 0.2 ML CORN OIL 2/WK FOR 4 WK, Promoter: NONE USED): 85%, 100%, -18%, not significant

Compound: NCCCCCC(=O)O
- tumour outcome (control, treated, inhibition, significance) (Carcinogen: N-ETHYL-N-NITROSOUREA, 759-73-9, Dose [Inhibitor]: 0, 1000 MG/L IN DRINKING WATER FOR 12 MO ADMINISTERED TO CARCINOGEN-TREATED MOTHERS (STUDY DURATION: 12 MO), Route [Inhibitor]: ORAL, Species: RAT, Strain/Sex: ALBINO/MALE, FEMALE, Target Tissue: Type of Lesion: PERIPHERAL NERVES: TUMOR, Dose [Carcinogen]: 75 MG/KG BW ADMINISTERED INTRAPERITONEALLY TO MOTHERS 21 D POST CONCEPTION, Promoter: NONE USED): 24/63 (38%), 7/33 (21%), 45%, not significant
- tumour outcome (control, treated, inhibition, significance) (Carcinogen: N-ETHYL-N-NITROSOUREA, 759-73-9, Dose [Inhibitor]: 0, 1000 MG/L IN DRINKING WATER FOR 12 MO ADMINISTERED TO OFFSPRING OF CARCINOGEN-TREATED MOTHERS (STUDY DURATION: 12 MO), Route [Inhibitor]: ORAL, Species: RAT, Strain/Sex: ALBINO/MALE, FEMALE, Target Tissue: Type of Lesion: BRAIN: TUMOR, Dose [Carcinogen]: 75 MG/KG BW ADMINISTERED INTRAPERITONEALLY TO MOTHERS 21 D POST CONCEPTION, Promoter: NONE USED): 53/63 (84%), 21/33 (64%), 24%, p<0.05
- tumour outcome (control, treated, inhibition, significance) (Carcinogen: N-ETHYL-N-NITROSOUREA, 759-73-9, Dose [Inhibitor]: 0, 1000 MG/L IN DRINKING WATER FOR 12 MO ADMINISTERED TO OFFSPRING OF CARCINOGEN-TREATED MOTHERS (STUDY DURATION: 12 MO), Route [Inhibitor]: ORAL, Species: RAT, Strain/Sex: ALBINO/MALE, FEMALE, Target Tissue: Type of Lesion: KIDNEY: TUMOR, Dose [Carcinogen]: 75 MG/KG BW ADMINISTERED INTRAPERITONEALLY TO MOTHERS 21 D POST CONCEPTION, Promoter: NONE USED): 23/63 (37%), 7/33 (21%), 43%, not significant
- tumour outcome (control, treated, inhibition, significance) (Carcinogen: N-ETHYL-N-NITROSOUREA, 759-73-9, Dose [Inhibitor]: 0, 1000 MG/L IN DRINKING WATER FOR 12 MO ADMINISTERED TO OFFSPRING OF CARCINOGEN-TREATED MOTHERS (STUDY DURATION: 12 MO), Route [Inhibitor]: ORAL, Species: RAT, Strain/Sex: ALBINO/MALE, FEMALE, Target Tissue: Type of Lesion: SPINAL CHORD: TUMOR, Dose [Carcinogen]: 75 MG/KG BW ADMINISTERED INTRAPERITONEALLY TO MOTHERS 21 D POST CONCEPTION, Promoter: NONE USED): 17/63 (27%), 15/33 (45%), -67%, not significant

Compound: CC(C)=C1C=CC(O)CC1 (stereo not drawn)
- tumour outcome (control, treated, inhibition, significance) (Carcinogen: 7,12-DIMETHYLBENZ[A]ANTHRACENE, 57-97-6, Dose [Inhibitor]: 0, 12 NMOL PER REPEATED APPLICATION FOR 20 WK (STUDY DURATION: 20 WK), Route [Inhibitor]: DERMAL, Species: MOUSE, Strain/Sex: CD-1/FEMALE, Target Tissue: Type of Lesion: SKIN: TUMOR, Dose [Carcinogen]: 100 UG ONCE, Promoter: OKADAIC ACID, 78111-17-8): 87%, 67%, 23%, not calculated
